In publication PMC4478171, “Synthesis, characterization, and preclinical validation of a PET radiopharmaceutical for interrogating Aβ (β-amyloid) plaques in Alzheimer’s disease” (EJNMMI Research, 2015):
“Also recorded” adds a separate entry of the source.

Legend:
AD homogenates = AD homogenates (Homo sapiens, UniProt P05067); experiment: Saturation radioligand binding to AD brain homogenates (insoluble fraction)
Procedure: Well-established literature procedures were used for preparation of AD homogenates. Grey matter was isolated from frozen postmortem frontal cortex tissue by dissection with a scalpel. To prepare insoluble fractions, dissected tissue was sequentially homogenized in four buffers (3 mL/g wet weight of tissue) with glass dounce tissue grinders (Kimble, Vineland, NJ, USA): 1) high salt (HS) buffer: 50 mM Tris-HCl pH 7.5, 750 mM NaCl, 5 mM EDTA; 2) HSbuffer with 1%Triton X-100; 3) HSbuffer with 1%Triton X-100 and 1 M sucrose; and 4) phosphate-buffered saline (PBS). Homogenates were centrifuged at 100,000×g; after each homogenization step, the pellet was resuspended, and homogenized in the next buffer in the sequence. For comparison in initial binding studies, unfractionated tissue homogenates were also prepared by homogenization of tissue in only PBS. Binding assays were performed using previously described methods. Briefly, a fixed concentration (1 μM/well) of Aβ1-42 fibrils was incubated for 1 h at 37°C with increasing concentrations of ^18F-7B (1.5 to 100 nM) in 30 mM Tris-HCl pH 7.4, 0.1% BSA in a reaction volume of 150 μL. A fixed ratio of hot:cold (^18F-7B and 7A) was used for all radioligand concentrations. The exact hot:cold (^18F-7B:7A) ratio was measured in each experiment by counting an aliquot of a sample (2 μL) of the radioligand preparation in a scintillation counter. Binding of ^18F-7B to human brain homogenates was assessed by incubating samples of insoluble fraction (5-μg insoluble protein/well) from AD subjects, with increasing concentrations of ^18F-7B (1.5 to 100 nM). Nonspecific binding was determined in parallel experiments utilizing 7A (2.5 μM) for Aβ1-42 fibrils and 7A (5 μM) for AD tissue as a competitor. Bound and free radioligand were separated by vacuum filtration through glass fiber 96-well filter plates (Millipore Multiscreen FB filter plate), followed by washes using ice-cold assay buffer (3 × 150 μL). Glass fiber filters containing the bound ligand were mixed with Optiphase Supermix scintillation cocktail (150 μL; PerkinElmer, Waltham, MA, USA) and counted immediately. All data were obtained in triplicate and analyzed by curve fitting to a one-site binding model using nonlinear regression employing Graphpad Prism software (version 4.0) to determine Kd and Bmax values. Bmax values were calculated in pmol/gram wet weight of brain tissue.

[1] = biological target: cortical Aβ plaques in AD frontal cortex sections (Homo sapiens, UniProt P05067); experiment: Autoradiography on AD frontal cortex sections with IHC correlation; assay type: binding; conditions: 10 nM tracer, 60 min, 12 μm AD frontal cortex sections
Sequence of cortical Aβ plaques in AD frontal cortex sections (P05067 672-711 limits assumed): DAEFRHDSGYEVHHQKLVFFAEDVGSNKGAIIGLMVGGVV
Procedure: Frozen AD frontal cortex sections (12 μm) were obtained using a TBS Minotome PLUS Cryostat. The tissue sections were thaw-mounted onto Superfrost Plus (Fisherbrand 12-550-15 (Fisherbrand, Leicestershire, UK)) microscope slides, allowed to air dry for 10 to 15 min, and stored at −80°C. For autoradiography, brain sections were brought to room temperature for 5 min and then pre-incubated in assay buffer (30 mM Tris-HCl, pH 7.4 + 0.1% BSA) for 10 min at RT. Sections were incubated with ^18F-7B (300 μL/slide; 10 nM) in the assay buffer for 60 min at room temperature. For determining nonspecific binding, adjacent sections were incubated in the additional presence of 2.5 μM cold ligand 7A. Sections were then washed at RT for 1 min in 30 mM Tris-HCl pH 7.4, 2 min in 70% ethanol/30 mM Tris-HCl, 1 min in 30% ethanol/30 mM Tris-HCl, and 1 min in 30 mM Tris-HCl (washing protocol using literature precedents. Sections were then dried and exposed to phosphor-imaging screen (BAS-MS 2025) for 30 min. Autoradiography images were obtained on a Fuji Bio-Imaging System FLA-7000 (Tokyo, Japan) and analyzed using MultiGauge software (Fuji, Tokyo, Japan). Following exposure to a phosphor-imaging screen, the sections were then blocked for 60 min at room temperature with 3% milk-0.25% Tween 20-PBS buffer. […]

[2] = Biodistribution studies in normal mice; assay type: in vivo, FVB mice; conditions: for Blood uptake / Bone uptake / Brain uptake / Kidney uptake / Liver uptake: FVB mice, n = 3
Procedure: All animal procedures were approved by the Washington University Animal Studies Committee. Pharmacokinetics of ^18F-7B in brain and other critical tissues of normal male 12-week-old FVB (wild type (WT); 28 to 36 g) mice were determined as previously described. Briefly, ^18F-7B (740 kBq) was dissolved in 100-μL saline containing 10% ethanol. All animals were anesthetized by isofluorane inhalation and injected with radiotracer ^18F-7B (740 kBq, 100 μL) via bolus injection through a tail vein. Animals were sacrificed by cervical dislocation under anesthesia at 5, 30, 60, and 120 min after injection (n = 3 each). Blood samples were obtained by cardiac puncture, organs then harvested rapidly, and all tissue samples analyzed for γ-activity. Data are expressed as the percentage injected dose (%ID) per gram of tissue (tissue kBq (injected kBq)^−1 (g tissue)^−1 × 100).

[3] = Metabolite analysis in human serum (radio-HPLC, radio-TLC); assay type: in vitro ADME; conditions: 37°C up to 60 min, radio-HPLC and radio-TLC
Procedure: Human serum (Sigma-Aldrich, St. Louis, MO, USA) was thawed. Serum (100 μL) was taken, diluted with saline to 10%, and incubated with HPLC-purified fraction of ^18F-7B (100 μCi each) at 37°C for 30 and 60 min. Samples were periodically withdrawn and analyzed on radio-HPLC using eluent mixture described above and radio-TLC using an eluent mixture of ethanol/saline in a ratio of 90:10 (to allow mobility of parental compound and other hydrophobic metabolites off the surface to analyze protein binding) and 10:90 (to analyze hydrophilic metabolites).

Sequence of AD homogenates (P05067 672-711 limits assumed): as above

SMILES: CN(C)c1ccc(/C=C/c2nc3ccc(OCC[18F])cc3s2)cn1 [^18F-7B, (E)-5-(2-(6-(2-[^18F]-fluoroethoxy)-benzo[d]thiazol-2-yl)vinyl)-N,N-dimethylpyridin-2-amine]
- fold higher affinity for AD homogenates compared with fibrils (AD homogenates; AD homogenates vs Aβ1-42 fibrils): 3.4 fold
- Bmax (AD homogenates; AD homogenates, one-site model): 1,432 pmol/g wet weight
- fold lower binding affinity to AD homogenates than Florbetapir (AD homogenates; comparator value from ref 11): 5 fold
- fold lower binding affinity to AD homogenates than Flutemetamol (AD homogenates; comparator value from ref 16): 2.6 fold
- fold lower BP than 11C-PIB (AD homogenates; homogenates, comparator from ref 28): 6 fold
- fold lower BP than 18F-Florbetaben (AD homogenates; homogenates, comparator from ref 36): 2 fold
- Kd (AD homogenates; saturable specific binding, one-site model, nonspecific binding with 7A (5 μM)): 17.7 nM
- labeling of Aβ plaques in autoradiography [1]: showed labeling of cortical Aβ plaques
- Blood uptake ([2]; 5 min post i.v.): 3.18 ± 0.23 %ID/g
- Bone uptake ([2]; 5 min post i.v.): 1.61 ± 0.20 %ID/g
- Brain uptake ([2]; 5 min post i.v.): 7.23 ± 0.47 %ID/g
- Kidney uptake ([2]; 5 min post i.v.): 6.72 ± 0.44 %ID/g
- Liver uptake ([2]; 5 min post i.v.): 16.22 ± 1.43 %ID/g
- Blood uptake ([2]; 30 min post i.v.): 2.51 ± 0.09 %ID/g
- Bone uptake ([2]; 30 min post i.v.): 2.08 ± 0.13 %ID/g
- Brain uptake ([2]; 30 min post i.v.): 2.27 ± 0.13 %ID/g
- Kidney uptake ([2]; 30 min post i.v.): 2.83 ± 0.09 %ID/g
- Liver uptake ([2]; 30 min post i.v.): 5.21 ± 0.08 %ID/g
- Blood uptake ([2]; 60 min post i.v.): 2.40 ± 0.17 %ID/g
- Bone uptake ([2]; 60 min post i.v.): 3.41 ± 0.37 %ID/g
- Brain uptake ([2]; 60 min post i.v.): 2.00 ± 0.15 %ID/g
- Kidney uptake ([2]; 60 min post i.v.): 2.20 ± 0.07 %ID/g
- Liver uptake ([2]; 60 min post i.v.): 3.44 ± 0.20 %ID/g
- Blood uptake ([2]; 120 min post i.v.): 1.86 ± 0.05 %ID/g
- Bone uptake ([2]; 120 min post i.v.): 5.27 ± 0.34 %ID/g
- Brain uptake ([2]; 120 min post i.v.): 1.55 ± 0.01 %ID/g
- Kidney uptake ([2]; 120 min post i.v.): 1.59 ± 0.03 %ID/g
- Liver uptake ([2]; 120 min post i.v.): 2.73 ± 0.16 %ID/g
- brain uptake clearance ratio 5 min/120 min ([2]; %ID/g brain, normal mice): 4.66
- defluorination indicated by bone accumulation ([2]; as a function of time over 2 h, normal mice): slight defluorination
- stability in human serum [3]: presence of parental species in human serum; also recorded: presence of primarily the parental compound
